Laboratory results taken from paper PMC8582824, “Targeting DDX3X Helicase Activity with BA103 Shows Promising Therapeutic Effects in Preclinical Glioblastoma Models” (Cancers, 2021).

Tests used:
[1] = target: T1, DDX3X helicase activity (Homo sapiens, UniProt O00571); test: FRET-based DDX3X helicase assay; assay type: biochemical; settings: FRET helicase assay, recombinant DDX3X; for IC50: read-out: IC50 ± SD, DDX3X anti-enzymatic (helicase) activity
T1 construct: Recombinant his-tagged human full length DDX3X; His tag; made in house; host or cells: ShuffleT7 E. coli
T1 sequence (O00571 whole entry): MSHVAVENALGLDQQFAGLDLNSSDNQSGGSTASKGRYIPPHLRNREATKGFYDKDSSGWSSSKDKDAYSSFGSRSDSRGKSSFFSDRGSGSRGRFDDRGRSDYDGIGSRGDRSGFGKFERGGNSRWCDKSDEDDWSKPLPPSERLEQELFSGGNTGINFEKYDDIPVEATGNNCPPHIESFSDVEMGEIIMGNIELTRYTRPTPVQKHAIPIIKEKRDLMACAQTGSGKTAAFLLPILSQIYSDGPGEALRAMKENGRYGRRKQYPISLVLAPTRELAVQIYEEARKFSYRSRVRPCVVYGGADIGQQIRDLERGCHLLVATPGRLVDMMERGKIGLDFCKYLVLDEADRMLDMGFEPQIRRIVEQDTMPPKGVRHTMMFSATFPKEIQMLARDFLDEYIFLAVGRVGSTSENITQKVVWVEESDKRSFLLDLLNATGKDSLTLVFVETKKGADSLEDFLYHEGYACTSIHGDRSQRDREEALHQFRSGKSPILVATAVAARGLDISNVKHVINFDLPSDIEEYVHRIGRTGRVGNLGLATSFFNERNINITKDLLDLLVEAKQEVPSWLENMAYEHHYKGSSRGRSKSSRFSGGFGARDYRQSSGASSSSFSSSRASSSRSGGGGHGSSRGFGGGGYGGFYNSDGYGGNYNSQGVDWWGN
Procedure: Recombinant his-tagged human full length DDX3X cloned the E. coli expression vector pET-30a(+). ShuffleT7 E. coli cells were transformed with the plasmid and grown at 37 °C up to OD600 = 0.7. DDX3X expression was induced with 0.5 mM IPTG at 15 °C O/N. Cells were harvested by centrifugation, lysed, and the crude extract was centrifuged at 100,000 g for 60 min at 4 °C in a Beckman centrifuge before being loaded onto a FPLC Ni-NTA column (GE Healthcare, Chicago, IL, USA). The column was equilibrated in Buffer A (50 mM Tris-HCl pH 8.0, 250 mM NaCl, 25 mM Imidazole and 20% glycerol). After extensive washing in Buffer A, the column was eluted with a linear gradient in Buffer A from 25 to 250 mM Imidazole. Proteins in the eluted fractions were visualized on SDS-PAGE and tested for the presence of DDX3X by Western blot with anti-DDX3X A300-475A (Bethyl Laboratories, Montgomery, TX, USA) at 1:4000 dilution in 5% milk. Fractions containing the purest DDX3X protein were pooled and stored at −80 °C.
The dsRNA substrate for the helicase assay was prepared by hybridizing two ss RNA oligonucleotides with the following sequences: • Fluo-FAM 5′ […] 3′ • Qu-BHQ1 5′ […] 3′ • DNA capture 5′ […] 3′.
The sequence in Fluo-FAM complementary to Qu-BHQ1 is underlined. Fluo-FAM carries a 6-carboxyfluorescein fluorophore at its 3′ end, while Qu-BHQ1 carries a Black Hole quencher group at its 5′ end. The DNA capture oligonucleotide is complementary to the Qu-BHQ1 oligonucleotide, but it bears no modifications. A helicase assay using the dsRNA substrate was performed in 20 mM TrisHCl (pH 8), 70 mM KCl, 2 mM MgCl2, 2 mM dithiothreititol, 12 units RNasin (Promega), 2 mM ATP, 50 nM dsRNA, and 100 nM capture strand in 20 μL of reaction volume. The unwinding reaction was started by adding 60 pmols of DDX3X recombinant protein and carried out at 37 °C for 40 min using a LightCycler 480 (Roche, Basel, Switzerland). The fluorescence intensity was recorded every 30 s. Values of fluorescence signal in the presence or in the absence of inhibitor molecules were analyzed by linear interpolation, and the corresponding slope values were used to determine the apparent unwinding rate.
The IC50 values have been calculated from dose–response curves. Data (in triplicate) were plotted and analyzed by least-squares nonlinear regression, according to the method of Marquardt–Levenberg, with the computer program GraphPad Prism 6.0. Data were fitted to the following equation:Eobs = Emax/(1 + (IC50/[I])^n)(1) where E(obs) is the observed enzymatic activity in the presence of each inhibitor dose [I]; E(max) is the maximal enzymatic activity in the absence of the inhibitor; and n is an exponential term to take into account sigmoidal dose–response curves.
All the compounds were tested for their ability to inhibit the helicase activity of DDX3X using a fluorescence resonance energy transfer (FRET)-based assay, as previously described. Values of fluorescence signal in the presence or in the absence of inhibitor molecules were analyzed by linear interpolation (for details, see Methods 2.3.2).

[2] = target: T2, DDX1 (Homo sapiens, UniProt Q92499); test: DDX1 helicase activity inhibition; assay type: biochemical; settings: for IC50: helicase activity of DDX1, read-out: DDX1 IC50 ± SD
T2 sequence (Q92499 1-740): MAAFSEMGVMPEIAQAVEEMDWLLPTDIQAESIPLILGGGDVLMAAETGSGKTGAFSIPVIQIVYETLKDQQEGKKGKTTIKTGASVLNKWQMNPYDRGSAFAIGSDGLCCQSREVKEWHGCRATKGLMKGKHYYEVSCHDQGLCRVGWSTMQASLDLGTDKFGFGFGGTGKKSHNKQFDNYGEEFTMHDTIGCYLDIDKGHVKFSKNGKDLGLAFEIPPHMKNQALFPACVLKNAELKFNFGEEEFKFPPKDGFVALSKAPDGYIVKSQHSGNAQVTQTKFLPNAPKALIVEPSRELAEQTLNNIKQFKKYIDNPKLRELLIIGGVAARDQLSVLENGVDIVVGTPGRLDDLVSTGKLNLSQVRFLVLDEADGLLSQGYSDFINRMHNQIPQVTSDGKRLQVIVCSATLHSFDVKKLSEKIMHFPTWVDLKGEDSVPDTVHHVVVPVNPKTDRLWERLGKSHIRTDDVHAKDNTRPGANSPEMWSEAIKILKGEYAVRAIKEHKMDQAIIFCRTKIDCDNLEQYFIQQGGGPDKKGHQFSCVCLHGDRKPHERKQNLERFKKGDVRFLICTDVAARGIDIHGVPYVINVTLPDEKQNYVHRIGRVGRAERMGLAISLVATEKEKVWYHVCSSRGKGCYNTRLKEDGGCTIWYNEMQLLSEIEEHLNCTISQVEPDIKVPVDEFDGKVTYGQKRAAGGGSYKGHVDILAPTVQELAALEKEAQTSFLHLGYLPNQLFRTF
Excerpt: To confirm the proposed mechanism of action and the selectivity of our compounds for the helicase binding site, we tested the capability of BA103 to inhibit the ATPase activity of DDX3X and the helicase activity of DDX1, which is another human member of the DEAD-box family.

| Structure (SMILES) | IC50 ± SD, DDX3X anti-enzymatic (helicase) activity [1] | IC50 [1] | SI (Selectivity Index) [2] | IC50 [2] |
| --- | --- | --- | --- | --- |
| CCCCc1cn(-c2ccc(NC(=O)Nc3ccccc3C(F)(F)F)cc2)nn1 [BA103, 1-(4-(4-Butyl-1H-1,2,3-triazol-1-yl)phenyl)-3-(2-(trifluoromethyl)phenyl)urea] | submicromolar range | 400 ± 50 nM | >250 | > 100000 nM |
| CCCCn1nnc(-c2ccc(NC(=O)Nc3ccccc3C(F)(F)F)cc2)n1 [Compound 6, 1-(4-(2-Butyl-2H-tetrazol-5-yl)phenyl)-3-(2-(trifluoromethyl)phenyl)urea] | submicromolar range |  |  |  |
| CCCCc1cn(-c2ccc(NC(=O)Nc3ccccc3C)cc2)nn1 [Compound 1, reference compound] |  | 300 ± 70 nM | >666 | > 200000 nM |
| CC(C)CCc1cn(-c2ccc(NC(=O)Nc3cccc4cnccc34)cn2)nn1 [Compound 10, 1-(6-(4-Isopentyl-1H-1,2,3-triazol-1-yl)pyridin-3-yl)-3-(isoquinolin-5-yl)urea] | submicromolar range | 100 ± 30 nM | >1000 | > 100000 nM |
| CCCCc1nnc(-c2ccc(NC(=O)Nc3ccccc3C(F)(F)F)cc2)[nH]1 [Compound 4, 1-(4-(5-Butyl-4H-1,2,4-triazol-3-yl)phenyl)-3-(2-(trifluoromethyl)phenyl)urea] | submicromolar range | 70 ± 20 nM | 418 | 29300 ± 16800 nM |
